Experimental data published in patent publication US8168596B2, “Use of cycloartane compounds for treating arthritis” (NuLiv Holding Inc., priority 2008, dated 2012).

Experiments:
Assay type in all cases: cell-based, human
MMP-13 = assay: Western blot of MMP-13 in PMA- or IL-1β-pre-treated SW1353 cells (Example 6); conditions: 0.1 μM, 48 h
Procedure: The cells were then plated on 6-cm dishes at a density of 1×10^6 cells/dish for 24 hours prior to any treatment. At the beginning of the experiment, the cells were pre-treated with 100 ng/mL PMA or 10 ng/mL IL-1β for 24 hours. The cells were then treated 0.1 μM Dexamethasone with, various astragaloside compounds (0.1 μM) or extracts of Astragalus membranaceous (1 μg/mL) at indicated dosages for another 48 hours. For control sample, 0.1% DMSO was used as a negative control for these experiments. The conditioned culture mediums were then centrifuged, 2-fold concentrated and collected for assay of collagens or MMPs secreted into the culture medium.
Western blotting analysis was carried out on both cultured medium and cell lysates, as follows. The cells were washed and lysed in 0.2 mL of lysis buffer (1% NP-40, 50 mM Tris-HCl, pH 7.4, 180 mM NaCl, 1 mM EDTA, 1 mM PMSF, 1 mM NaF, 10 mM Na3VO4) for 30 min at 4° C. After centrifuging at 17500 g for 15 min, the supernatants of cell lysate were also collected. Protein concentration of the samples were measured using the bicinchoninic acid (BCA) protein assay kit according to the manufacturer's protocol (Pierce, Rockford, Ill., USA). Equal amount of protein samples of concentrated conditioned medium (100 μg) or cell lysate supernatants (50 μg) were mixed with an appropriate volume of 4×SDS sampling buffer and separated by 8% SDS-PAGE gel. The protein bands separated in the SDS-PAGE gel were blotted onto a polyvinylidene fluoride (PVDF) membrane. The blotted PVDF membrane was washed twice and blocked in freshly prepared Tris-buffered saline (TBS) containing 0.1% Tween-20 and 7% skim milk (TBST) for 2 hours at room temperature. […] Horseradish peroxidase-conjugated anti-goat antibody was used as secondary antibody. Signals were visualized by an enhanced chemiluminescence kit (Clonetech, Palo Alto, Calif., USA) followed by exposure to X-ray films.

SW1353 cells = assay: Cell viability assay (Cell Counting Kit 8); conditions: AS4 0.01-20 μM
Procedure: The culture medium was replaced every other day. After confluence, the cells were subcultured following trypsinization. For subcultures, cells were harvested after brief treatment with 0.1% trypsin/ethylenediaminetetraacetic acid (EDTA) solution and seeded at a dilution of 1:10. Cells between passages 12 and 45 were used for studies.
Then SW1353 cells were treated with astragaloside IV (AS4) at a concentration of 0.01 μM, 0.1 μM, 1 μM, 2 μM, 5 μM, 10 μM or 20 μM, followed by incubating for 24 hours or 48 hours. Later, the SW1353 cell culture in each well was treated with 10 μl Cell Counting Kit 8 solution (Dojindo molecular technologies, Gaithersburg, Md., USA), followed by incubation at 37° C. in a humidified incubator with 5% CO2 for 1-4 hours. Then, the absorbance of the SW1353 cell cultures was detected by an EIA reader at 450 nm. Compared with that of the control group, the viability of the experimental groups was analyzed.

MMP-2 = assay: Zymography of MMP-2 from pre-treated SW1353 cells; conditions: PMA-pre-treated SW1353; 0.1 μM, 24 h
Procedure: At the beginning of the experiment, the cells were pre-treated with 100 ng/mL PMA or 10 ng/mL IL-1β for 24 hours. The cells were then treated with 0.1 μM Dexamethasone, various astragaloside compounds (0.1 μM) or extracts of Astragalus membranaceous (1 μg/mL) at indicated dosages for another 24 hours. For control sample, 0.1% DMSO was used as a negative control for these experiments. The conditioned culture mediums were then centrifuged, 2-fold concentrated and collected for assay of collagens or MMPs secreted into the culture medium.
The proteolytic activities of MMPs from SW1353 cells were measured essentially as described previously (Circ Res, 1999; 85:906-911). The cells were lysed in lysis buffer (1% Triton X-100, 50 mM Tris-Cl, pH 7.4, 180 mM NaCl, 1 mM EDTA). The samples were measured for their protein concentration using the bicinchoninic acid (BCA) protein assay kit as described. Samples of concentrated conditioned medium and cell lysates were mixed with non-reducing electrophoresis loading buffer and subjected to electrophoresis under non-reducing conditions. The electrophoresis was carried out on a 10% SDS-PAGE co-polymerized with 2 mg/mL gelatin or casein (Sigma, St. Louis, Mo. USA). For zymographic analysis of pro-MMP-2 and activated MMP-2, the total 20 μg of culture medium were used for electrophoresis. Following electrophoresis, renaturation of the proteins was achieved by incubating the gels twice in 25 g/L Triton X-100 at room temperature for 10 min. Subsequently the gels were incubated in 50 mM Tris-HCl, pH 7.5 containing 0.2 M NaCl, 0.02% Brij35 and 10 mM CaCl2 at 37° C. for 18 hours. After the gels were stained with Coomassie Brilliant Blue R-250 and destained, zones of proteolytic activities became visible as transparent bands in the stained gel. In order to obtain higher sensitivity, the gels were further destained in a solution of 1% Triton X-100 (1 to 2 hours). This procedure increased the signal-to-noise ratio, allowing the visualization of faint gelatinase bands at 92 kDa, 125 kDa and greater than 200 kDa. Zymograms were read using a Molecular Dynamics (Sunnyvale, Calif., USA) computing laser densitometer with Image Quant software.

## CC(C)(O)[C@@H]1CC[C@](C)([C@H]2[C@@H](O)C[C@@]3(C)[C@@H]4C[C@H](O[C@@H]5O[C@H](CO)[C@@H](O)[C@H](O)[C@H]5O)[C@H]5C(C)(C)[C@@H](O[C@@H]6OC[C@@H](O)[C@H](O)[C@H]6O)CC[C@@]56C[C@@]46CC[C@]23C)O1 [AS4, Astragaloside IV]
MMP-13; IL-1β-pre-treated SW1353 cell extract
  MMP-13, Western blot, relative to Ctrl 1.00: 1.10
MMP-13; IL-1β-pre-treated SW1353 culture medium
  MMP-13, Western blot, relative to Ctrl 1.00: 0.56
MMP-13; PMA-pre-treated SW1353 cell extract
  MMP-13, Western blot, relative to Ctrl 1.00: 0.79
SW1353 cells; 24 or 48 hours
  toxicity to SW1353 cells: non-toxic
SW1353 cells; 24 hours
  cell proliferation compared with control group: did not change significantly
SW1353 cells; 48 hours
  cell proliferation compared with control group: did not change significantly
MMP-2
  MMP-2, Zymography, relative to Ctrl 1.00: 1.01
